Data: ChEMBL document CHEMBL5325425, “Design, synthesis and biological evaluation of pyrrolopyrimidine derivatives as novel and selective positive modulator of the small conductance Ca2+-activated K+ channels” (Eur J Med Chem, 2023)
pEC50: −log10 of the molar value.

Experiments:
[1] = target: Small conductance calcium-activated potassium channel protein 3 (Homo sapiens, UniProt Q9UGI6); test: Positive modulation of SK3 (unknown origin)
[2] = target: T1, Small conductance calcium-activated potassium channel protein 1 (Homo sapiens, UniProt Q92952); test: Positive modulation of SK1 (unknown origin)
[3] = target: T2, Small conductance calcium-activated potassium channel protein 2 (Homo sapiens, UniProt Q9H2S1); test: Positive modulation of SK2 (unknown origin)
[4] = target: T2, Small conductance calcium-activated potassium channel protein 2; test: Positive modulation of SK2 in HEK293 cells in presence of Ca2+ by patch-clamp method; assay type: cell-based
[5] = target: T1, Small conductance calcium-activated potassium channel protein 1; test: Positive modulation of SK1 in HEK293 cells in presence of Ca2+ by patch-clamp method; assay type: cell-based
[6] = Activation of rat SK2 variant a transfected in human tsA201 cells coexpressing CaM/GFP in presence of Ca2+ by […]; assay type: cell-based
[7] = Half life in fasted Sprague-Dawley rat at 100 mg/kg, po measured upto 12 hrs by LC-MS/MS analysis; assay type: ADME, organism-based; conditions: in vivo
[8] = Oral bioavailability in fasted Sprague-Dawley rat at 100 mg/kg measured upto 12 hrs by LC-MS/MS analysis; assay type: ADME, organism-based; conditions: in vivo
[9] = MRT in fasted Sprague-Dawley rat at 100 mg/kg, po measured upto 12 hrs by LC-MS/MS analysis; assay type: ADME, organism-based; conditions: in vivo
[10] = Apparent volume of distribution during terminal phase in fasted Sprague-Dawley rat at 2 mg/kg, iv measured upto 12 hrs by LC-MS/MS analysis; assay type: ADME, organism-based; conditions: in vivo
[11] = Cmax in fasted Sprague-Dawley rat at 2 mg/kg, iv measured upto 12 hrs by LC-MS/MS analysis; assay type: ADME, organism-based; set-up: dose 2 mg/kg, time < 12 hrs, route iv; conditions: in vivo
[12] = AUC (0 to infinity) in fasted Sprague-Dawley rat at 2 mg/kg, iv measured upto 12 hrs by LC-MS/MS analysis; assay type: ADME, organism-based; set-up: time < 12 hrs, dose 2 mg/kg, route iv; conditions: in vivo
[13] = Apparent oral clearance in fasted Sprague-Dawley rat at 100 mg/kg, po measured upto 12 hrs by LC-MS/MS analysis; assay type: ADME, organism-based; conditions: in vivo
[14] = AUC (0 to infinity) in fasted Sprague-Dawley rat at 100 mg/kg, po measured upto 12 hrs by LC-MS/MS analysis; assay type: ADME, organism-based; set-up: time < 12 hrs, dose 100 mg/kg, route po; conditions: in vivo
[15] = Cmax in fasted Sprague-Dawley rat at 100 mg/kg, po measured upto 12 hrs by LC-MS/MS analysis; assay type: ADME, organism-based; set-up: time < 12 hrs, dose 100 mg/kg, route po; conditions: in vivo
[16] = Apparent permeability across apical to basal side in human BMEC cells at 10 ug/ml incubated for 24 hrs by BBB assay; assay type: ADME, cell-based; conditions: dose 10 µg/ml
[17] = Apparent volume of distribution during terminal phase in fasted Sprague-Dawley rat at 100 mg/kg, po measured upto 12 hrs by LC-MS/MS analysis; assay type: ADME, organism-based; conditions: in vivo, read-out: Vz/F
[18] = AUC (0 to t) in fasted Sprague-Dawley rat at 2 mg/kg, iv measured upto 12 hrs by LC-MS/MS analysis; assay type: ADME, organism-based; set-up: dose 2 mg/kg, time < 12 hrs, route iv; conditions: in vivo
[19] = tested on: HUVEC; test: Cytotoxicity against HUVEC cells assessed as cell viability at 0.1 to 10000 nM incubated for 24 hrs by CCK8 assay; assay type: toxicity, cell-based; conditions: human, 10 µM, dose 0.1-10000 nM
[20] = AUC (0 to t) in fasted Sprague-Dawley rat at 100 mg/kg, po measured upto 12 hrs by LC-MS/MS analysis; assay type: ADME, organism-based; set-up: time < 12 hrs, dose 100 mg/kg, route po; conditions: in vivo
[21] = Apparent oral clearance in fasted Sprague-Dawley rat at 2 mg/kg, iv measured upto 12 hrs by LC-MS/MS analysis; assay type: ADME, organism-based; conditions: in vivo
[22] = Tmax in fasted Sprague-Dawley rat at 100 mg/kg, po measured upto 12 hrs by LC-MS/MS analysis; assay type: ADME, organism-based; conditions: in vivo
[23] = MRT in fasted Sprague-Dawley rat at 2 mg/kg, iv measured upto 12 hrs by LC-MS/MS analysis; assay type: ADME, organism-based; conditions: in vivo
[24] = Half life in fasted Sprague-Dawley rat at 2 mg/kg, iv measured upto 12 hrs by LC-MS/MS analysis; assay type: ADME, organism-based; conditions: in vivo

T2 sequence (Q9H2S1 whole entry): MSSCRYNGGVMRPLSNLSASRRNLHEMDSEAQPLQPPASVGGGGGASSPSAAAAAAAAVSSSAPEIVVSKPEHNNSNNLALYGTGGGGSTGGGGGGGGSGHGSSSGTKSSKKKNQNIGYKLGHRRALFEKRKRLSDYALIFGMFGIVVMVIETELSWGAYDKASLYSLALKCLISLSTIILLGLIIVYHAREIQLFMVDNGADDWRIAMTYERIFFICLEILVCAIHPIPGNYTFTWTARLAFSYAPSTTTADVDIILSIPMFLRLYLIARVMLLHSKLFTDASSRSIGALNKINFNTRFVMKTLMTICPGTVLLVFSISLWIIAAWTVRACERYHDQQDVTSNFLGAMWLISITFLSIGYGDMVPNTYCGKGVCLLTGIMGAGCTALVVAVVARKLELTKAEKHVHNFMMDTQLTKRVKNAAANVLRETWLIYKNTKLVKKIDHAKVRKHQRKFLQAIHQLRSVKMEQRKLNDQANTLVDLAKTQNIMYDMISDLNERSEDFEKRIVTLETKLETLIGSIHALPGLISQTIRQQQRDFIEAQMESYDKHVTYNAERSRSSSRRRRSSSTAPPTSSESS
T1 sequence (Q92952 whole entry): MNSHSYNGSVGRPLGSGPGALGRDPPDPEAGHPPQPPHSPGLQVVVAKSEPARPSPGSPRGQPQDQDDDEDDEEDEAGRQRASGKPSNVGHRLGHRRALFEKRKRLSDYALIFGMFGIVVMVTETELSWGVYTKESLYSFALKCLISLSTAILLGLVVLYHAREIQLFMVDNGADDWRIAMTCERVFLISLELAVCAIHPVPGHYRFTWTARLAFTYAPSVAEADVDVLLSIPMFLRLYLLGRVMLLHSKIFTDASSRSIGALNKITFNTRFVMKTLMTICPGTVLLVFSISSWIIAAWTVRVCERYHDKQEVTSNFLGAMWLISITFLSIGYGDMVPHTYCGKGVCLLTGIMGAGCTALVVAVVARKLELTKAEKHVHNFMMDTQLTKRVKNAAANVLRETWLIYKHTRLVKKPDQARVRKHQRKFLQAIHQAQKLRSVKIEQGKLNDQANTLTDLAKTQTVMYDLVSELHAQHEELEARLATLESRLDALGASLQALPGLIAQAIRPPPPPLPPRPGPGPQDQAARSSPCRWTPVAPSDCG
Chain of Small conductance calcium-activated potassium channel protein 3 (Q9UGI6 whole entry): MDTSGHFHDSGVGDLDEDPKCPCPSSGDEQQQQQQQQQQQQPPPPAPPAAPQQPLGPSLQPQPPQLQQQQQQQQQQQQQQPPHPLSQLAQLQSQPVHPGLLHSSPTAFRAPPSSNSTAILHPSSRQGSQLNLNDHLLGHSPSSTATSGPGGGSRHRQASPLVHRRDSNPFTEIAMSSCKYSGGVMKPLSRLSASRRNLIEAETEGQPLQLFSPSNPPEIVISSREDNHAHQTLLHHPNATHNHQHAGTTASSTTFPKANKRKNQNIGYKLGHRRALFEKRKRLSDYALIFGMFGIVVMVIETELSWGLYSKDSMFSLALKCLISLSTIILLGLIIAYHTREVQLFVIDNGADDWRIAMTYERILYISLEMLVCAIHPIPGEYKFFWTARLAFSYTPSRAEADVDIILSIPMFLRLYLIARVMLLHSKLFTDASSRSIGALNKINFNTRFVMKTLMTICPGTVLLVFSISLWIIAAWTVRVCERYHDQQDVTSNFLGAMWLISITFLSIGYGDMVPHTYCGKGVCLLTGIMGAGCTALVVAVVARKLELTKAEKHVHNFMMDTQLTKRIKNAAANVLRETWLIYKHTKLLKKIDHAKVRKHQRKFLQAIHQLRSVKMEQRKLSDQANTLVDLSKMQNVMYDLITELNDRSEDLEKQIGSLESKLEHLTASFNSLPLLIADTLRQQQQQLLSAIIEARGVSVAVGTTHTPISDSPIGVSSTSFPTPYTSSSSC

Cc1cc(NC2CCCCC2)nc(-n2nc(C)cc2C)n1
pEC50 [1]: 5.25 | pEC50 [2]: < 4.00 | pEC50 [3]: 4.85

O=C1Nc2c(ccc(Cl)c2Cl)C1=NO
pEC50 [4]: 6.10 | pEC50 [5]: 6.22

Cc1cc(C)n(-c2nc(Nc3cccc(C(F)(F)F)c3)c3c(ccn3C)n2)n1
pEC50 [6]: 4.69

Cc1cc(C)n(-c2nc(Nc3ccc(F)c(Cl)c3)c3ccn(C)c3n2)n1
pEC50 [6]: 5.75

Cc1cc(C)n(-c2nc(Nc3ccc(I)cc3)c3ccsc3n2)n1
pEC50 [6]: < 4.00

Cc1cc(C)n(-c2nc(Nc3cccc(Br)c3)c3ccn(C)c3n2)n1
half-life [7]: 1.25 h | bioavailability ([8]; Sprague-Dawley): 4.03% | pEC50 [6]: 6.14 | MRT [9]: 3.22 h | Vz/F [10]: 4.791 L/kg | Cmax [11]: 1620 ng/mL | AUC(0-inf) ([12]; Sprague-Dawley): 1370 ng·h/mL | CL/F ([13]; Sprague-Dawley, read-out: CLz/F (converted)): 813 mL/min/kg | AUC(0-inf) [14]: 2510 ng·h/mL | Cmax [15]: 662 ng/mL | Papp A→B at 24 h, 10 ug/ml [16]: 3.23 ×10⁻⁶ cm/s | Vd/F [17]: 92.9 L/kg | AUC(0-t) at 12 h [18]: 1360 ng·h/mL | Activity [19]: Non-Toxic | AUC(0-t) at 12 h ([20]; Sprague-Dawley): 2500 ng·h/mL | CLz/F [21]: 26.8 mL/min/kg | Tmax [22]: 2.67 h | MRT [23]: 1.5 h | half-life [24]: 1.97 h

Cc1ccn(-c2nc(Nc3ccc(F)cc3)c3ccn(C)c3n2)n1
half-life [7]: 1.43 h | F ([8]; po, 100 mg/kg, 12 h): 23.6% | MRT [9]: 3.37 h | Vz/F [10]: 6.111 L/kg | Cmax [11]: 1680 ng/mL | AUC ([12]; 12 h): 1168.28 ng·h/mL | CLz/F ([13]; po, 100 mg/kg, 12 h): 695.27 mL/min/kg | Cmax [15]: 488 ng/mL | Papp A→B at 24 h, 10 ug/ml [16]: 3.07 ×10⁻⁶ cm/s | Vd/F [17]: 86.7 L/kg | AUC(0-t) at 12 h [18]: 1110 ng·h/mL | Activity [19]: Non-Toxic | AUCt ([20]; 12 h): 2427.989 ng·h/mL | CLz/F [21]: 31.72 mL/min/kg | Tmax [22]: 2.67 h | MRT [23]: 1.51 h | half-life [24]: 2.63 h

Cc1cc(C)n(-c2nc(Nc3ccc(Cl)cc3)c3ccn(C)c3n2)n1
pEC50 [6]: 5.46

Cc1cc(C)n(-c2nc(Nc3ccc(Cl)c(C(F)(F)F)c3)c3c(ccn3C)n2)n1
pEC50 [6]: 4.53

Cc1cc(C)n(-c2nc(Nc3ccc(Cl)cc3)c3ccsc3n2)n1
pEC50 [6]: < 4.00

Cc1cc(C)n(-c2nc(Nc3cccc(C(C)C)c3)c3c(ccn3C)n2)n1
pEC50 [6]: 5.53

Cc1cc(C)n(-c2nc(Nc3ccccc3)c3ccsc3n2)n1
pEC50 [6]: 5.08

Cc1cccc(Nc2nc(-n3nc(C)cc3C)nc3c2ccn3C)c1
pEC50 [6]: 5.18

Cc1cc(C)n(-c2nc(Nc3ccc(Br)cc3)c3ccn(C)c3n2)n1
pEC50 [6]: 5.71

Cc1cc(C)n(-c2nc(NC3CCCCC3)c3ccn(C)c3n2)n1
pEC50 [6]: 5.64

Cc1cc(C)n(-c2nc(NC3CCCCC3)c3ccsc3n2)n1
pEC50 [6]: < 4.00

Cc1cc(C)n(-c2nc(N(C)Cc3ccccc3)c3ccn(C)c3n2)n1
pEC50 [6]: 4.72

Cc1ccn(-c2nc(Nc3ccc(Cl)c(C(F)(F)F)c3)c3ccn(C)c3n2)n1
pEC50 [6]: 6.30

Cc1ccn(-c2nc(Nc3cccc(Br)c3)c3ccn(C)c3n2)n1
pEC50 [6]: 6.32

Cc1cc(C)n(-c2nc(Nc3ccccc3)c3ccn(C)c3n2)n1
pEC50 [6]: 5.37

CCc1ccc(Nc2nc(-n3nc(C)cc3C)nc3sccc23)cc1
pEC50 [6]: < 4.00

Cc1cc(C)n(-c2nc(Nc3cccc(C#N)c3)c3ccn(C)c3n2)n1
pEC50 [6]: 5.39

Cc1cc(C)n(-c2nc(Nc3ccc(Cl)cc3)c3ncn(C)c3n2)n1
pEC50 [4]: 5.74 | pEC50 [5]: < 4.00 | Papp A→B at 24 h, 10 ug/ml [16]: 2.94 ×10⁻⁶ cm/s

Cc1cc(C)n(-c2nc(Nc3ccc(Br)cc3)c3ccsc3n2)n1
pEC50 [6]: < 4.00

Cc1ccc(Nc2nc(-n3nc(C)cc3C)nc3c2ccn3C)cc1
pEC50 [6]: 5.51

Cc1cc(C)n(-c2nc(Nc3ccc(C(C)C)cc3)c3ccn(C)c3n2)n1
pEC50 [6]: 5.42

Cc1ccc(Nc2nc(-n3nc(C)cc3C)nc3sccc23)cc1
pEC50 [6]: < 4.00

Cc1cc(C)n(-c2nc(Nc3ccc(Cl)c(C(F)(F)F)c3)c3ccn(C)c3n2)n1
pEC50 [6]: 5.92

Cc1cc(C)n(-c2nc(Nc3cccc(C(F)(F)F)c3)c3ccn(C)c3n2)n1
pEC50 [6]: 5.80

Cc1cc(C)n(-c2nc(Nc3ccccc3)c3c(ccn3C)n2)n1
pEC50 [6]: 5.07

CCC(CC)Nc1nc(-n2nc(C)cc2C)nc2sccc12
pEC50 [6]: < 4.00

COc1ccc(Nc2nc(-n3nc(C)cc3C)nc3c2ccn3C)cc1
pEC50 [6]: 4.86

Cc1ccn(-c2nc(Nc3cccc(C(F)(F)F)c3)c3ccn(C)c3n2)n1
pEC50 [6]: 5.19

COc1ccc(Nc2nc(-n3nc(C)cc3C)nc3sccc23)cc1
pEC50 [6]: < 4.00

Cc1cc(C)n(-c2nc(Nc3cccc([N+](=O)[O-])c3)c3ccn(C)c3n2)n1
pEC50 [6]: 5.24

Cc1cc(C)n(-c2nc(Nc3ccc(F)cc3)c3ccn(C)c3n2)n1
pEC50 [6]: 5.47

Cc1cccc(Nc2nc(-n3nc(C)cc3C)nc3ccn(C)c23)c1
pEC50 [6]: 5.11

Cc1cc(C)n(-c2nc(Nc3cccc(Br)c3)c3c(ccn3C)n2)n1
pEC50 [6]: 5.76

CCc1ccc(Nc2nc(-n3nc(C)cc3C)nc3c2ccn3C)cc1
pEC50 [6]: < 4.00

Cc1cc(C)n(-c2nc(Nc3ccc(C(C)C)cc3)c3ccsc3n2)n1
pEC50 [6]: < 4.00

Cc1cc(C)n(-c2nc(Nc3ccc(F)cc3)c3ccsc3n2)n1
pEC50 [6]: 5.17

CCc1ccc(Nc2nc(-n3nc(C)cc3C)nc3ccn(C)c23)cc1
pEC50 [6]: 5.44
